Measured values from the supplement of paper PMC10307832.

Assays:
Experiment in all cases: relative viability (nuclei count vs DMSO), 5 days (fraction); higher = more cells survive
[1] = compound: Cc1ccc(C(=O)Nc2cccc(C(F)(F)F)c2)cc1Nc1cncc(C(N)=O)c1 [ALW-II-49-7] + Cc1nc(Nc2ncc(C(=O)Nc3c(C)cccc3Cl)s2)cc(N2CCN(CCO)CC2)n1 [Dasatinib] (partner 0.075 µM)
Summary of the method: (§1)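 One day after seeding in 1536-well plates, lung cancer cell lines were dosed by pin tool. Dosing was either single-drug or a fixed anchor-drug dose plus five library-drug doses (not always all listed) in √10 steps. After 5 days, nuclei were stained in one fix-and-stain step and counted on 4× images, and relative viability is the nuclei count of treated wells over that of vehicle wells, given as the median of duplicate plates.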

[2] = compound: Cc1ccc(C(=O)Nc2cccc(C(F)(F)F)c2)cc1Nc1cncc(C(N)=O)c1 [ALW-II-49-7] + N=C(N)NC(=N)NCCc1ccccc1 [Phenformin] (partner 250 µM)
Summary of the method: as §1

[3] = compound: C1CC1C(=O)NC2=NNC3=C2C=CC(=C3)C4=CC(=CC=C4)C(=O)NC5CC5 [XMD13-2] + Cc1cc(Nc2cc(N3CCN(C)CC3)nc(Sc3ccc(NC(=O)C4CC4)cc3)n2)n[nH]1 [Tozasertib] (partner 0.1 µM)
Summary of the method: as §1

[4] = compound: Cc1ccc(C(=O)Nc2cccc(C(F)(F)F)c2)cc1Nc1cncc(C(N)=O)c1 [ALW-II-49-7] + CC(=O)Nc1cccc(-n2c(=O)n(C3CC3)c(=O)c3c(Nc4ccc(I)cc4F)n(C)c(=O)c(C)c32)c1 [Trametinib] (partner 0.02 µM)
Summary of the method: as §1

| Cell Line | relative viability ([1]; first compound 0.08 µM) | relative viability ([1]; first compound 0.253 µM) | relative viability ([1]; first compound 0.8 µM) | relative viability ([1]; first compound 2.53 µM) | relative viability ([1]; first compound 8 µM) | relative viability ([2]; first compound 0.08 µM) | relative viability ([2]; first compound 0.253 µM) | relative viability ([2]; first compound 0.8 µM) | relative viability ([2]; first compound 2.53 µM) | relative viability ([2]; first compound 8 µM) | relative viability ([3]; first compound 0.05 µM) | relative viability ([3]; first compound 0.1581 µM) | relative viability ([3]; first compound 0.5 µM) | relative viability ([3]; first compound 1.581 µM) | relative viability ([3]; first compound 5 µM) | relative viability ([4]; first compound 0.08 µM) | relative viability ([4]; first compound 0.253 µM) | relative viability ([4]; first compound 0.8 µM) | relative viability ([4]; first compound 2.53 µM) | relative viability ([4]; first compound 8 µM) |
| --- | --- | --- | --- | --- | --- | --- | --- | --- | --- | --- | --- | --- | --- | --- | --- | --- | --- | --- | --- | --- |
| NCI-H441 | 0.497 | 0.475 | 0.684 | 0.674 | 0.459 | 0.979 | 0.682 | 0.817 | 0.928 | 0.67 | 0.808 | 0.652 | 0.608 | 0.591 | 0.53 | 0.41 | 0.494 | 0.381 | 0.69 | 0.443 |
| NCI-H2126 | 0.534 | 0.638 | 0.586 | 0.52 | 0.457 | 0.507 | 0.549 | 0.505 | 0.515 | 0.485 | 0.953 | 0.879 | 0.81 | 0.861 | 0.985 | 0.595 | 0.561 | 0.541 | 0.526 | 0.574 |
| RERF-LC-KJ | 0.827 | 0.815 | 0.951 | 0.665 | 0.741 | 0.419 | 0.456 | 0.414 | 0.373 | 0.397 | 0.613 | 0.515 | 0.59 | 0.466 | 0.523 | 0.867 | 0.923 | 0.816 | 0.749 | 0.833 |
| NCI-H1666 | 0.845 | 0.81 | 0.794 | 0.767 | 0.835 | 0.565 | 0.568 | 0.58 | 0.703 | 0.653 | 0.662 | 0.602 | 0.595 | 0.623 | 0.518 | 0.864 | 0.927 | 0.865 | 0.948 | 0.803 |
| PC-14 | 0.202 | 0.3 | 0.242 | 0.227 | 0.192 | 0.562 | 0.637 | 0.528 | 0.406 | 0.546 | 0.605 | 0.657 | 0.632 | 0.608 | 0.562 | 0.722 | 0.826 | 0.717 | 0.683 | 0.665 |
| NCI-H1915 | 0.372 | 0.349 | 0.339 | 0.326 | 0.292 | 0.333 | 0.32 | 0.364 | 0.353 | 0.342 | 0.48 | 0.488 | 0.48 | 0.412 | 0.335 | 0.305 | 0.383 | 0.334 | 0.251 | 0.262 |
| NCI-H661 | 0.782 | 1.06 | 0.965 | 0.832 | 0.767 | 0.28 | 0.282 | 0.278 | 0.295 | 0.297 | 0.335 | 0.307 | 0.33 | 0.36 | 0.427 | 0.529 | 0.606 | 0.521 | 0.567 | 0.53 |
